{
  "source": "patent EP0103895A2",
  "about": "“Novel hydroxylamine derivatives, production and use thereof” (MEIJI SEIKA KABUSHIKI KAISHA, priority 1982, dated 1984)",
  "key": {"[1]": {"test_system": "swine whipworm (Trichuris suis)", "assay": "Test of anthelmintic effect in naturally infected pigs, E.P.G. on 7th day: swine whipworm (Test Examples A9, B9, C9, D9)", "format": "in vivo", "conditions": "pigs, 20 mg/Kg orally once, one value per pig", "experimental": "(§1) Six pigs infected with swine roundworm and swine whipworm (naturally infected pigs) were employed in groups each of two pigs.\n(§2) As a control, only gelatin capsules were administered orally to the two pigs.\n(§3) Before administration and on the 7th day after. administration, fecal matter testing was conducted to calculate the E.P.G., and the anthelmintic effect was judged by the changing of the E.P.G. to negative'.\n(§4) 50 mg of each compound was placed in a gelatin capsule per 1 Kg of body weight and administered orally to each of the two pigs. As control, only gelatin capsules were administered orally to two pigs.\n(§5) 30 mg of each compound was placed in a gelatin capsule per 1 Kg of body weight and administered orally to each of the two pigs. As control, only gelatin capsules were administered orally to two pigs."}, "[2]": {"test_system": "fowl roundworm (As. galli)", "assay": "Anthelmintic test in chickens artificially infected with fowl roundworm, compound added to feed, E.P.G. and worm count up to 21st day (Test Examples A2, B2, C2, D2)", "format": "in vivo, Ascaridia galli", "conditions": "Ascaridia galli, po, 504 h, chickens, worm count on 21st day, one value per chicken, read-out: Anthelmintic effect"}, "[3]": {"test_system": "canine roundworm (Toxocara canis)", "assay": "Anthelmintic test in naturally infected dogs with mixed infections, E.P.G. on 7th day: canine roundworm (Test Examples A3, B3, C3, D3)", "format": "in vivo", "conditions": "dogs, 20 mg/Kg orally once, one value per dog", "experimental": "(§6) Three dogs with mixed infections by canine whipworm (Trichuris vulpis), canine hookworm (Ancylostoma caninum) and canine roundworm (Toxocara canis) (naturally infected dogs) were employed in a group of two and a group of one.\n(§7) The compound provided for the test was Compound No.Al, and 20 mg/Kg thereof was placed in a gelatin capsule per 1 Kg of body weight, and administered orally to the two dogs. As control, only a gelatin capsule was administered orally to the one dog.\n(§8) Before administration and on the 7th day after administration, fecal matter testing was conducted to calculate the E.P.G., and the anthelmintic effect was judged by the changing of the E.P.G. to negative.\n(§9) As control, only gelatin capsules were administered orally to the one dog.\n(§10) The same method as in Test Example A3, but the compound provided for the test was Compound No. Cl. 30 mg/Kg of this compound was placed in a gelatin capsule per 1 Kg of body weight and administered orally to the two dogs. As control, only gelatin capsules were administered orally to the one dog."}, "[4]": {"test_system": "canine hookworm (Ancylostoma caninum)", "assay": "Anthelmintic test in naturally infected dogs with mixed infections, E.P.G. on 7th day: canine hookworm (Test Examples A3, B3, C3, D3)", "format": "in vivo", "conditions": "dogs, 20 mg/Kg orally once, one value per dog", "experimental": "as §6, §7, §8, §9, §10"}, "[5]": {"test_system": "canine strongyloides (Strongyloides stercoralis)", "assay": "Anthelmintic test against canine strongyloides in naturally infected dogs, E.P.G. on 7th day (Test Examples A4, B4, C4, D4)", "format": "in vivo", "conditions": "dogs", "experimental": "Three dogs infected with canine strongyloides (naturally infected dogs) were employed by grouping them into a group of two and a group of one.\nAs control, only a gelatin capsule was administered orally to the one dog.\nas §8, §9, §9"}, "[6]": {"test_system": "Trichostrongylidae (Trichostrongylus colubriformis)", "assay": "Anthelmintic test against sheep Trichostrongylidae in naturally infected sheep, E.P.G. on 7th day (Test Examples A7, B7, C7, D7)", "format": "in vivo", "experimental": "Two sheep infected with Trichostrongylidae (naturally infected sheep) were employed.\nThe compound provided for the test was Compound No. Al, 15 mg of which was placed in a gelatin capsule per 1 Kg of body weight and administered orally to one of the sheep. As a control, only gelatin capsules were administered orally to the other sheep.\nas §8\nAs control, only gelatin capsules were administered orally to the other sheep.\nAs control, only gelatin capsule was administered orally to the other sheep."}, "[7]": {"test_system": "swine roundworm (Ascaris suum)", "assay": "Test of anthelmintic effect in naturally infected pigs, E.P.G. on 7th day: swine roundworm (Test Examples A9, B9, C9, D9)", "format": "in vivo", "experimental": "as §1, §2, §3, §4, §5"}, "[8]": {"test_system": "canine filaria; Dirofilaria immitis", "assay": "Test of anthelmintic effect against canine filaria in naturally infected dogs, subcutaneous injection, microfilaria in blood and adult filaria at autopsy (Test Examples A10, B10, C10, D10)", "format": "in vivo"}, "[9]": {"test_system": "canine whipworm (Trichuris vulpis)", "assay": "Anthelmintic test in naturally infected dogs with mixed infections, E.P.G. on 7th day: canine whipworm (Test Examples A3, B3, C3, D3)", "format": "in vivo", "experimental": "as §6, §7, §8, §9, §10"}, "[10]": {"test_system": "Liver fluke; Fasciola hepatica (F. hepatica)", "assay": "Test of anthelmintic effect against rat infected experimentally with liver fluke (Test Examples A11, B11, C11, D11)", "format": "in vivo", "set-up": "key to Presence or absence of fluke egg in fecal matter On 21st day after the last administration: +: indicates detection of fluke egg; -: indicates no detection"}, "[11]": {"test_system": "fowl roundworm (Ascaridia galli)", "assay": "Anthelmintic test in chickens artificially infected with fowl roundworm, single oral dose in gelatin capsule, worm bodies counted within 48 hours (Test Examples A1, B1, C1, D1)", "format": "in vivo", "conditions": "Ascaridia galli, po, 48 h, chickens, one value per chicken (No.1-3), read-out: Anthelmintic effect after 48 hours", "summary_of_the_method": "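Anthelmintic percentage derived from counts of worms passed within 48 h plus worms left in the intestine after killing at 48 h. Infection confirmed by fecal examination in three-bird groups; compound given orally once in gelatin capsules at 10/20 (A1, B1), 30/50 (C1) or 15/30 (D1) mg/kg.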"}, "[12]": {"test_system": "Trichostrongylidae (Trichostrongylus colubriformis)", "assay": "Anthelmintic test against sheep Trichostrongylidae in naturally infected sheep, E.P.G. on 7th day (Test Examples A7, B7, C7, D7)", "format": "in vivo", "remark": "listed apart in the source"}, "[13]": {"conditions": "dogs, 20 mg/Kg x 3 subcutaneously, autopsy on 10th day after the last administration, one value per dog, 20 mg/kg"}},
  "note": "Several values for one entry are separate records, joined by “and”; a condition that tells them apart may be missing. Identical values can stand only once. Like-named read-outs stand apart in the source and are kept apart here.",
  "data": [
    {"smiles": "C#CCN(OC)C(C)=O", "note": "[Compound A1, N-propargyl-N-acetyl-O-methylhydroxylamine]", "values": [
      {"measurement": "Change of E.P.G. Before administration", "setting": "[1]; baseline, 20 mg/kg", "value": "1,300 E.P.G. and 2,100 E.P.G."},
      {"measurement": "Change of E.P.G. 7th day", "setting": "[1]", "value": 0, "unit": "E.P.G."},
      {"measurement": "inhibition in vivo at 10 ppm", "setting": "[2]; 10 ppm added to feed", "value": "80 to 90", "unit": "%"},
      {"measurement": "inhibition in vivo at 50 ppm", "setting": "[2]; 50 ppm added to feed", "value": 100, "unit": "%"},
      {"measurement": "Change of E.P.G. Before administration", "setting": "[3]; baseline, 20 mg/kg", "value": "5,100 E.P.G. and 2,300 E.P.G."},
      {"measurement": "Change of E.P.G. 7th day", "setting": "[3]", "value": 0, "unit": "E.P.G."},
      {"measurement": "Change of E.P.G. Before administration", "setting": "[4]; baseline, 20 mg/kg", "value": "4,500 E.P.G. and 7,800 E.P.G."},
      {"measurement": "Change of E.P.G. 7th day", "setting": "[4]", "value": 0, "unit": "E.P.G."},
      {"measurement": "anthelmintic effect", "setting": "[5]; one administration of 10 mg/Kg", "value": "marked anthelmintic effect"},
      {"measurement": "anthelmintic effect", "setting": "[5]; one administration of 20 mg/Kg", "value": "marked anthelmintic effect"},
      {"measurement": "Change of E.P.G. 7th day", "setting": "[6]; 15 mg/Kg orally once", "value": 0, "unit": "E.P.G."},
      {"measurement": "Change of E.P.G. Before administration", "setting": "[6]; 15 mg/Kg orally once, baseline", "value": "1,600 E.P.G."},
      {"measurement": "anthelmintic effect", "setting": "[6]; one administration of 15 mg/Kg", "value": "marked anthelmintic effect"},
      {"measurement": "anthelmintic effect", "setting": "[7]; pigs infected with swine roundworm and swine whipworm (statement covers both), one administration of 20 mg/Kg", "value": "marked anthelmintic effect"},
      {"measurement": "Change of E.P.G. 7th day", "setting": "[7]; pigs, 20 mg/Kg orally once, Ascaris suum, one value per pig", "value": 0, "unit": "E.P.G."},
      {"measurement": "inhibition in vivo at 20 mg/kg", "setting": "[8]; Dirofilaria immitis, sc, 240 h, dogs, administration of 20 mg/Kg repeated three times, given as about 50% or more, read-out: anthelmintic effect against adult filaria", "value": "≥ 50", "unit": "%"},
      {"measurement": "Effect on adult filaria: Number of worms killed/Total parasites", "setting": "[8]; [13]", "value": "7/12 and 5/ 7"},
      {"measurement": "Effect on adult filaria: Percent of worms killed", "setting": "[8]; [13]", "value": "58% and 71%"},
      {"measurement": "Number of microfilaria/20 µl On 10th day after the last administration", "setting": "[8]; dogs, 20 mg/Kg x 3 subcutaneously, earlobe blood, one value per dog", "value": "0 /20 µl"},
      {"measurement": "anthelmintic effect against microfilaria (mf)", "setting": "[8]; dogs, administration of 20 mg/Kg repeated three times", "value": "marked anthelmintic effect"},
      {"measurement": "anthelmintic effect", "setting": "[9]; dogs with mixed infections (Trichuris vulpis, Ancylostoma caninum, Toxocara canis; statement covers all three), one administration of 20 mg/Kg", "value": "marked anthelmintic effect"},
      {"measurement": "Change of E.P.G. Before administration", "setting": "[9]; dogs, 20 mg/Kg orally once, Trichuris vulpis, baseline, one value per dog, 20 mg/kg", "value": "3,200 E.P.G. and 2,700 E.P.G."},
      {"measurement": "Change of E.P.G. 7th day", "setting": "[9]; dogs, 20 mg/Kg orally once, Trichuris vulpis, one value per dog", "value": 0, "unit": "E.P.G."},
      {"measurement": "Condition of fluke body", "setting": "[10]; rats, 50 mg/Kg x 5 orally, autopsy, liver, \"Denatured\" = fluke body is alive but a part of fluke body has changed, one value per rat", "value": "dead"},
      {"measurement": "Presence or absence of fluke egg in fecal matter On 21st day after the last administration", "setting": "[10]; rats, 50 mg/Kg x 5 orally, one value per rat", "value": "-"}
    ]},
    {"smiles": "C=CCN(OCC)C(C)=O", "note": "[Compound B8, N-allyl-N-acetyl-O-ethylhydroxylamine]", "values": [
      {"measurement": "inhibition in vivo at 30 mg/kg", "setting": "[11]; 30 mg/Kg orally in gelatin capsule", "value": 100, "unit": "%"},
      {"measurement": "inhibition in vivo at 50 mg/kg", "setting": "[11]; 50 mg/Kg orally in gelatin capsule", "value": 100, "unit": "%"},
      {"measurement": "Change of E.P.G. Before administration", "setting": "[5]; 20 mg/Kg orally once, baseline, one value per dog, 20 mg/kg", "value": "5,300 E.P.G. and 2,600 E.P.G."},
      {"measurement": "Change of E.P.G. 7th day", "setting": "[5]; 20 mg/Kg orally once, one value per dog", "value": 0, "unit": "E.P.G."},
      {"measurement": "inhibition in vivo at 30 mg/kg", "setting": "[8]; Dirofilaria immitis, sc, 240 h, dog, 30 mg/Kg x 3, subcutaneous injection, read-out: Effect on adult filaria: Percent of worms killed", "value": 58, "unit": "%"},
      {"measurement": "inhibition in vivo at 30 mg/kg", "setting": "[8]; Dirofilaria immitis, sc, 240 h, dogs, administration of 30 mg/Kg repeated three times, given as about 50% or more, read-out: anthelmintic effect against adult filaria", "value": "≥ 50", "unit": "%"},
      {"measurement": "Number of microfilaria/20 µl on 10th day after the last administration", "setting": "[8]; dog, 30 mg/Kg x 3, subcutaneous injection, suspension in 1% Tween 80", "value": "0 /20 µl"},
      {"measurement": "Effect on adult filaria: Number of worms killed/ Total parasite", "setting": "[8]; dog, 30 mg/Kg x 3, subcutaneous injection, 30 mg/kg", "value": "7/12 and 13/21"},
      {"measurement": "anthelmintic effect against microfilaria (mf)", "setting": "[8]; dogs, administration of 30 mg/Kg repeated three times", "value": "marked anthelmintic effect"},
      {"measurement": "Change of E.P.G. 7th day", "setting": "[12]; 20 mg/Kg orally once", "value": 0, "unit": "E.P.G."},
      {"measurement": "Change of E.P.G. Before administration", "setting": "[12]; 20 mg/Kg orally once, baseline", "value": "3,400 E.P.G."},
      {"measurement": "anthelmintic effect", "setting": "[12]; one administration of 20 mg/Kg", "value": "marked anthelmintic effect"},
      {"measurement": "Condition of fluke body", "setting": "[10]; rat, 50 mg/Kg x 5", "value": "dead"},
      {"measurement": "Presence or absence of fluke egg in fecal matter On 21st day after the last administration", "setting": "[10]; rat, 50 mg/Kg x 5", "value": "-"},
      {"measurement": "anthelmintic effect", "setting": "[10]; rats, five administrations in a dose of 50 mg/Kg each", "value": "marked antihelmintic effect"}
    ]}
  ]
}
